Where two headings read alike, the source gives them in different places.
How the values were obtained:
DB = assay: Cell viability assay (CellTiter-Glo, ATP quantification); type: cell-based, human; settings: cell viability by ATP quantification, read-out: 50% inhibitory concentration (IC50)
Protocol: (§1) FIG. 3: Iron chelators and Ironomycin inhibit DLBCL cell growth DLBCL cells were incubated with different concentrations of iron chelators or vehicle for 96H. Inhibitory concentration 50% (IC50) was calculated with concentration-response curve after treatment with Deferoxamin (A), Deferasirox, (B) and Ironomycin (C). Cell viability was examined using quantification of ATP assay. Data are expressed as mean percentage+/−SEM of at least three independent experiments performed in sixplicate.
(§2) The 16 DLBCL cell lines (U2932, OCI-LY-3, NU-DHL-1, OCI-LY-19, DB, SUDHL4, OCILY1, SUDHL5, DOHH2, SUDHL10, HT, RI-1, SU-DHL-6, NUDUL-1, WSU-DLCL-2 and OCI-LY-7) were purchased from the DSMZ (Leibniz-Institut DSMZ—Deutsche Sammlung von Mikroorganismen und Zellkulturen GmbH, Germany). They were maintained in RPMI-1640 (Gibco, Invitrogen), supplemented with 10% fetal bovine serum (PAA laboratory GmbH) for U2932, SUDHL-4, HT, DOHH2, SUDHL-10, RI-1, WSU-DLCL-2 cell lines, 20% FBS OCI-LY3, DB, SUDHL-5, NUDHL-1, SU-DHL-6, NUDUL-1 cell lines. OCI-LY1 and OCI-LY7 were cultured in IMDM (Gibco, Invitrogen), supplemented with 20% fetal bovine serum and OCI-LY19 was cultured in MEM alpha modified (Gibco, Invitrogen), supplemented with 20% fetal bovine serum. Cultures were maintained at 37° C. in a humidified atmosphere with 5% CO2.
(§3) DLBCL-derived cell lines were cultured for 4 days in 96-well flat-bottom microtiter plates in RPMI 1640 medium, 10% or 20% FCS (control medium) in the presence of various compounds. The number of viable cells in culture was determined using the CellTiter-Glo Luminescent Cell Viability Assay from Promega, Madison, Wis., USA using a Centro LB 960 luminometer (Berthold Technologies, Bad Wildbad, Germany).
(§4) This test is based on quantitation of the intracellular ATP present, which signals the presence of metabolically active cells. Data are expressed as the mean percentage of six replicates, normalized to the untreated control.

OCI-LY3 = assay: as above; type: cell-based, human; settings: cell viability by ATP quantification, read-out: 50% inhibitory concentration (IC50)
Protocol: as §1, §2, §3, §4

SUDHL-5 = assay: as above; type: cell-based, human; settings: SUDHL-5, 96H, cell viability by ATP quantification, read-out: 50% inhibitory concentration (IC50)
Protocol: as §1, §2, §3, §4

U2932 = assay: as above; type: cell-based, human; settings: cell viability by ATP quantification, read-out: 50% inhibitory concentration (IC50)
Protocol: as §1, §2, §3, §4

[1] = system: OCI-LY3 and DB cell lines
Text: The inventors further investigated the effect of Iron supplementation on the cell death induced by these treatments. Iron chelators concentrations were chosen according the maximal plasmatic concentration achievable in the patient (Nisbet-Brown et al., 2003).
Chaetocin was used as positive control of ROS production inhibited by GSH (Isham et al., 2007).

DLBCL cells = assay: Ferroptosis, Bodipy-C11 staining and ferrostatin-1 rescue; type: cell-based, human

SMILES | IC50 (DB; 96H) [µM] | IC50 (DB; Homo sapiens, 96 h) [µM] | IC50 (OCI-LY3; Homo sapiens, OCI-Ly3, 96 h) [µM] | IC50 (OCI-LY3; OCI-LY3, 96H) [µM] | IC50 (SUDHL-5; Homo sapiens, SU-DHL-5, 96 h) [µM] | IC50 (SUDHL-5) [µM] | IC50 (U2932; Homo sapiens, U2932, 96 h) [µM] | IC50 (U2932; U2932, 96H) [µM] | effect of iron supplementation on drug-induced apoptosis / cytotoxicity [1] | effect on erastin (ferroptosis inductor, positive control) (DLBCL cells) | toxicity in DLBCL cells (DLBCL cells)
O=C(O)c1ccc(-n2nc(-c3ccccc3O)nc2-c2ccccc2O)cc1 [Deferasirox] | 13.9 | 13.9 | 9.5 | 9.5 | 1.48 | 1.48 | 4.79 | 4.79 | significantly inhibited |  | 
CC(=O)N(O)CCCCCNC(=O)CCC(=O)N(O)CCCCCNC(=O)CCC(=O)N(O)CCCCCN [Deferoxamine] | 3.25 | 3.24 | 3.75 | 3.75 | 1.55 | 1.55 | 2.42 | 2.28 | significantly inhibited |  | 
CCOC(=O)c1ccc(NC2CCCCC2)c(N)c1 [Ferrostatin, Ferrostatin-1, reference compound] |  |  |  |  |  |  |  |  |  | abrogated the effects of erastin | did not demonstrated significant toxicity

Source: patent publication US20230220480A1, “IRON-SCORE AND IN VITRO METHOD FOR IDENTIFYING HIGH RISK DLBCL SUBJECTS AND THERAPEUTIC USES AND METHODS” (CENTRE NATIONAL DE LA RECHERCHE SCIENTIFIQUE (CNRS), priority 2019, published 2023)
